# Results: patent US10174312B2 (priority 2014, dated 2019)
# Where two headings read alike, the source gives them in different places. Starred links: 1 amine or outer side, 2 acyl side, 3 side chain; linkers in the order of their positions; H or OH if unused. Positions of bridges follow the written chain, without caps; N, C: chain ends. Non-standard residues stand in square brackets, D forms with d. Residues, ends and D or L forms follow the SMILES beside them. Chains are numbered I, II in the order given. Actinocin(9to1) = Cc1c2oc3c(C)ccc(C(=O)[*:1])c3nc-2c(C(=O)[*:2])c(N)c1=O; NMeV = CN[C@H](C(=O)O)C(C)C; Sar = CNCC(=O)O
# Columns and labels:
# [1] = test system: S. pombe genome-wide heterozygous deletion strain; assay: Chemical-genetic profile by DNA chip array (S. pombe compendium, DI-HI / ecDT screening); assay type: cell-based, Schizosaccharomyces pombe
# From the text: To make the genetic compendium of S. pombe heterozygous deletion strain pool, DNA was separated from the strain by the conventional method, followed by chip-hybridization to quantify the growth of the strain (S. E. Pierce, E. L. Fung, D. F. Jaramillo, et al., Nat. Methods 3 (2006) 601-603).
# Then, a short DNA barcode sequence in 20 bp long (named “TAG”) was inserted in the complementary region of the genomic DNA, followed by amplification with universal primers for the flanking sequence. The amount of the amplified TAG was judged by the growth of each strain, which was quantified by using the DNA chip (Affymetrix, USA) constructed with the complementary sequence of TAG.
# The result of the quantitative DNA chip array was not modified by background correction, normalization, or perfect match (PM) and the mean value was used as raw intensity (Iraw). The parameter for preprocessing the raw intensity was calculated by DNA chip array according to the conventional method informed to those in the art. To calculate the minimum value of the comparative fitness by saturated intensity, modification was performed according to the below mathematical formula 3. The normalized constant was applied to each analysis based on the modified raw intensity. For the modification, chip array was repeated 5 times with the glycerol stock deletion strain pool and the mean value was obtained. The normalized final intensity was log 2-transformed for after analysis. Icorrected=Iraw×exp(−Irawα) [Mathematical Formula 3]
# In the mathematical formula 3, ‘Icorrected’ indicates the modified intensity; ‘Iraw’ indicates the raw intensity; and ‘α’ indicates the variable of modification function calculated with UPTAG and DNATAG which are 0.0003412759 and 0.0002767581 respectively.
# Error model was calculated according to the conventional method in order to calculate the fitness score of the drug treated S. pombe heterozygous deletion strain.
# The compendium of the drug competitive growth experiment was used as the reference set. […] N and the line of drugs of 1 . . . j . . . M. The average and variable of the reference set of each strain were calculated by the below mathematical formula 4.
# Z-scores and p-values of the 4400 heterozygous deletion strains were obtained with 47 drugs. The amount of each strain was represented by UPTAG and DNTAG inserted in the upstream and the downstream of the gene that had been eliminated from each strain. To investigate the significance of p-value presenting the detect of the growth in the drug treated strain, the expected intensity of UPTAG and DNTAG in the strain was calculated by the mathematical formula 5. From the mean value thereof, Z-score presenting the statistical distance was obtained. The obtained Z-score was applied to error function or standard normal distribution according to the mathematical formula 6, and the growth detect of each strain was judged by p-value in the range of 0˜1.
# The growth defect by the presence or absence of each drug was investigated by the method illustrated in the schematic diagram of FIG. 5 to judge whether the heterozygous deletion gene was haplo-insufficient (HI) or haplo-sufficient (HS).
# [2] = test system: S. cerevisiae heterozygous deletion strain library; conditions: cited from earlier work
# [3] = test system: pool of the S. pombe heterozygous deletion strain; assay type: cell-based, Schizosaccharomyces pombe; conditions: for growth inhibition effect on the strain (sampling errors confirmed, FIG. 3): 20 generation subculture, expected vs sampled generation
# Protocol: In the course of 10 generation sub-culture and 20 generation sub-culture, OD600 was measured to confirm the doubling time. Then, pool fitness by doubling time (PFDT) was calculated by the below mathematical formula 2. […] PFDT=doubling time of the pool not-treated with the drug/doubling time of the pool treated with the drug [Mathematical Formula 2]
# [4] = each drug at its Dose(M) of Table 2, 25° C.
# [5] = each drug at its Dose(M) of Table 2, 25° C., PFDT = doubling time untreated pool / treated pool
# [6] = second, lower dose 1.50E−08 M (Drug ID 67.2, 71.2)
molecule,measurement,setting,value
CC[C@H]1OC(=O)[C@H](C)[C@@H](O[C@H]2C[C@@](C)(OC)[C@@H](O)[C@H](C)O2)[C@H](C)[C@@H](O[C@@H]2O[C@H](C)C[C@H](N(C)C)[C@H]2O)[C@](C)(O)C[C@@H](C)C(=O)[C@H](C)[C@@H](O)[C@]1(C)O [Erythromycin],−log (p) (Spo),"[1]; gene SPAC688.09, dose 250 μM",−42.17
same,−log (p) (Sce),"[2]; gene RIM2, dose 2.5 mg/ml",−4.63
C=C1[C@@H](C)[C@H]2[C@H](Cc3ccccc3)NC(=O)[C@]23OC(=O)/C=C/[C@H](O)CCC[C@@H](C)C/C=C/[C@H]3[C@@H]1O [Cytochalasin B],PF2DT: PFDT of the sample obtained from 20 generation subculture,[3]; [4],0.785
same,PF1DT: PFDT of the sample obtained from 10 generation subculture,[3]; [5],0.954
COc1ccc([C@@H]2Sc3ccccc3N(CCN(C)C)C(=O)[C@@H]2OC(C)=O)cc1.Cl [Dilitiazem hydrochloride],PF2DT: PFDT of the sample obtained from 20 generation subculture,[3]; [4],0.890
same,PF1DT: PFDT of the sample obtained from 10 generation subculture,[3]; [5],0.896
Clc1ccccc1C(c1ccccc1)(c1ccccc1)n1ccnc1 [Clotrimazole],−log (p) (Spo),"[1]; gene erg11, dose 0.1 μM",−13.15
O=C(CCCN1CCC(O)(c2ccc(Cl)cc2)CC1)c1ccc(F)cc1 [Haloperidol],−log (p) (Spo),"[1]; gene fet5, dose 88.3 μM",−4.402
same,−log (p) (Sce),"[2]; gene YLR243W, dose 125",−7.301
C[C@H]1CCC/C=C/[C@@H]2C[C@H](O)C[C@H]2[C@H](O)/C=C/C(=O)O1 [Brefeldin A],PF2DT: PFDT of the sample obtained from 20 generation subculture,[3]; [4],0.986
same,PF1DT: PFDT of the sample obtained from 10 generation subculture,[3]; [5],0.973
OCCN(CCO)c1nc(N2CCCCC2)c2nc(N(CCO)CCO)nc(N3CCCCC3)c2n1 [Dipyridamole],"growth inhibition effect on the strain (sampling errors confirmed, FIG. 3)",[3],growth inhibition effect
CCCCOc1ccc(C(=O)CCN2CCCCC2)cc1 [Dyclonine],"growth inhibition effect on the strain (sampling errors confirmed, FIG. 3)",[3],growth inhibition effect
same,−log (p) (Spo),"[1]; gene SPAC22F8.08, dose 68 μM",−12.19
same,−log (p) (Spo),"[1]; gene SPCC1450.10c, dose 68 μM",−6.928
same,−log (p) (Spo),"[1]; gene rpn12, dose 68 μM",−40.98
same,−log (p) (Sce),"[2]; gene NAR1, dose 500",−4.84
same,−log (p) (Sce),"[2]; gene RPN12, dose 500",−4.338
same,−log (p) (Sce),"[2]; gene SEC24, dose 500",−6.632
COc1cccc2c1C(=O)c1c(O)c3c(c(O)c1C2=O)C[C@@](O)(C(=O)CO)C[C@@H]3O[C@H]1C[C@H](N)[C@H](O)[C@H](C)O1 [Doxorubicin],−log (p) (Spo),"[1]; gene rpa2, dose 24 μM",−15.09
same,−log (p) (Spo),"[1]; gene vma1, dose 24 μM",−28.26
same,−log (p) (Spo),"[1]; gene vma7, dose 24 μM",−6.287
same,−log (p) (Sce),"[2]; gene RPA135, dose 62.5",−6.279
same,−log (p) (Sce),"[2]; gene TFP1, dose 62.5",−8.374
same,−log (p) (Sce),"[2]; gene VMA7, dose 62.5",−28.85
CO[C@@]12[C@H](COC(N)=O)C3=C(C(=O)C(C)=C(N)C3=O)N1C[C@@H]1N[C@@H]12 [Mitomycin C],PF2DT: PFDT of the sample obtained from 20 generation subculture,[3]; [4],0.756
same,PF1DT: PFDT of the sample obtained from 10 generation subculture,[3]; [5],0.840
same,−log (p) (Spo),"[1]; gene cdc10, dose 80 μM",−6.16
same,−log (p) (Spo),"[1]; gene snf21, dose 80 μM",−4.022
same,−log (p) (Sce),"[2]; gene SPC105, dose 1000",−14.52
same,−log (p) (Sce),"[2]; gene STH1, dose 1000",−5.49
same,−log (p) (Sce),"[2]; gene SWI6, dose 1000",−5.228
Cn1c(=O)c2[nH]cnc2n(C)c1=O [Theophylline anhydrous],PF2DT: PFDT of the sample obtained from 20 generation subculture,[3]; [4],0.924
same,PF1DT: PFDT of the sample obtained from 10 generation subculture,[3]; [5],0.887
"Cc1c2oc3c(C)ccc(C(=O)N[C@@H]4C(=O)N[C@H](C(C)C)C(=O)N5CCC[C@H]5C(=O)N(C)CC(=O)N(C)[C@@H](C(C)C)C(=O)O[C@@H]4C)c3nc-2c(C(=O)N[C@@H]2C(=O)N[C@H](C(C)C)C(=O)N3CCC[C@H]3C(=O)N(C)CC(=O)N(C)[C@@H](C(C)C)C(=O)O[C@@H]2C)c(N)c1=O [Actinomycin D] (I: T[dV]P[Sar][NMeV] / II: T[dV]P[Sar][NMeV]; ester I:1-I:C, II:1-II:C; linker I:N-II:N via Actinocin(9to1))","growth inhibition effect on the strain (sampling errors confirmed, FIG. 3)",[3],growth inhibition effect
same,PF2DT: PFDT of the sample obtained from 20 generation subculture,[3]; [4],0.709
same,PF1DT: PFDT of the sample obtained from 10 generation subculture,[3]; [5],0.650
CN(Cc1cnc2nc(N)nc(N)c2n1)c1ccc(C(=O)N[C@@H](CCC(=O)O)C(=O)O)cc1 [Methotrexate],−log (p) (Spo),"[1]; gene ssr2, dose 500 μM",−4.28
same,−log (p) (Sce),"[2]; gene RSC8, dose 250",−4.275
Tunicamycin,PF2DT: PFDT of the sample obtained from 20 generation subculture,[3]; [4],1.027
same,PF1DT: PFDT of the sample obtained from 10 generation subculture,[3]; [5],0.935
same,PF1DT: PFDT of the sample obtained from 10 generation subculture,[3]; [6],0.954
same,PF2DT: PFDT of the sample obtained from 20 generation subculture,[3]; [6],1.007
same,−log (p) (Spo),"[1]; gene gpt2 heterozygous deletion, dose 0.03125 μM",−4.976
same,−log (p) (Sce),"[2]; gene ALG7, dose 0.015 μM",−5.227
same,−log (p) (Sce),"[2]; gene ALG7, dose 150 ng/mL",−24
CN(C/C=C/C#CC(C)(C)C)Cc1cccc2ccccc12 [Terbinafine],−log (p) (Spo),"[1]; S. pombe gene not printed (ortholog of RRP1), dose 0.03 μM",−6.1
same,−log (p) (Spo),"[1]; gene erg1, dose 0.015 μM",−24.83
same,−log (p) (Spo),"[1]; gene erg1, dose 0.03 μM",−49.77
same,−log (p) (Sce),"[2]; gene ERG1, dose 2.5 ug/ml",−80.59
same,−log (p) (Sce),"[2]; gene RRP1, dose 7.2 μM",−4.515
